Measured values from ChEMBL document CHEMBL1201862, “PubChem BioAssay data set” (2004).
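Results reflect a 48-hour exposure of cells in 96-well plates to compound at five concentrations. GI50 marks 50% less growth.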 Calls of active or inactive are those of the source. Cut-off read from the data, not from the text of the source: active = GI50 up to about 1.1 µM and inactive = higher.

Columns and labels:
Experiment in all cases: growth of human tumour cells (NCI), 48 h
[1] = tested on: DLD-1
[2] = tested on: U-251
[3] = tested on: Malme-3M
[4] = tested on: MOLT-4
[5] = tested on: SNB-19
[6] = tested on: HL-60
[7] = tested on: OVCAR-8
[8] = tested on: SK-MEL-28
[9] = tested on: UACC-257
[10] = tested on: SW-620
[11] = tested on: COLO 205
[12] = tested on: SF-268
[13] = tested on: LOX IMVI
[14] = tested on: HT-29
[15] = tested on: OVCAR-4
[16] = tested on: HCT-15
[17] = tested on: A498
[18] = tested on: DU-145
[19] = tested on: MCF7
[20] = tested on: BT-549

Row | SMILES | GI50 [1] | GI50 [2] | GI50 [3] | GI50 [4] | GI50 [5] | GI50 [6] | GI50 [7] | GI50 [8] | GI50 [9] | GI50 [10] | GI50 [11] | GI50 [12] | GI50 [13] | GI50 [14] | GI50 [15] | GI50 [16] [µM] | GI50 [17] | GI50 [18] | GI50 [19] | GI50 [20]
1 | C#CN1C(=O)c2c(c(-c3ccccc3)c(-c3ccc(Oc4ccc(-c5c(-c6ccccc6)c6c(c(-c7ccccc7)c5-c5ccccc5)C(=O)N(C#C)C6=O)cc4)cc3)c(-c3ccccc3)c2-c2ccccc2)C1=O | > 100 µM (inactive) | > 100 µM (inactive) | > 100 µM (inactive) | > 100 µM (inactive) | > 100 µM (inactive) | > 100 µM (inactive) | > 100 µM (inactive) | > 100 µM (inactive) | > 100 µM (inactive) | > 100 µM (inactive) | > 100 µM (inactive) | > 100 µM (inactive) | > 100 µM (inactive) | > 100 µM (inactive) | > 100 µM (inactive) | 30.8 | – | – | – | –
2 | CC(=O)CNC(=O)OC(C)(C)C | > 100 µM (inactive) | > 100 µM (inactive) | > 100 µM (inactive) | > 100 µM (inactive) | > 100 µM (inactive) | > 100 µM (inactive) | > 100 µM (inactive) | > 100 µM (inactive) | > 100 µM (inactive) | > 100 µM (inactive) | – | > 100 µM (inactive) | – | > 100 µM (inactive) | > 100 µM (inactive) | – | > 100 µM (inactive) | – | – | –
3 | COc1ccc(-c2nc3c(nc2-c2ccc(OC)cc2)C(N)=NS(=O)(=O)N3)cc1 | > 100 µM (inactive) | > 100 µM (inactive) | > 100 µM (inactive) | > 100 µM (inactive) | > 100 µM (inactive) | > 100 µM (inactive) | > 100 µM (inactive) | > 100 µM (inactive) | > 100 µM (inactive) | > 100 µM (inactive) | > 100 µM (inactive) | > 100 µM (inactive) | > 100 µM (inactive) | > 100 µM (inactive) | – | > 100 | > 100 µM (inactive) | – | – | –
4 | CCOc1ccc(N2C(=O)/C(=C/c3ccc(N(CCC#N)CCC#N)cc3)N=C2c2cc([N+](=O)[O-])ccc2Cl)cc1 | 32.2 µM (inactive) | 51.5 µM (inactive) | – | 0.191 µM (active) | 35.8 µM (inactive) | 47.6 µM (inactive) | 35.3 µM (inactive) | 7.67 µM (inactive) | – | 23 µM (inactive) | 17.6 µM (inactive) | 30.8 µM (inactive) | 23 µM (inactive) | – | 59 µM (inactive) | 33.8 | 48.6 µM (inactive) | – | – | –
5 | CC(=O)N(CCc1ccccc1)C(C#N)c1ccc(OCCCCCCCCCCOc2ccc(C(C#N)N(CCc3ccccc3)C(C)=O)cc2)cc1 (stereo not given) | – | 21.7 µM (inactive) | > 100 µM (inactive) | > 100 µM (inactive) | 20.5 µM (inactive) | > 100 µM (inactive) | 23 µM (inactive) | > 100 µM (inactive) | > 100 µM (inactive) | > 100 µM (inactive) | > 100 µM (inactive) | 21.7 µM (inactive) | > 100 µM (inactive) | > 100 µM (inactive) | 5.41 µM (inactive) | 99.1 | 31.3 µM (inactive) | 85.9 µM (inactive) | > 100 µM (inactive) | 33 µM (inactive)
6 | O=C(/C=C/c1ccc(OCCCCCCCCCCOc2ccc(/C=C/C(=O)c3ccc(Cl)cc3)cc2)cc1)c1ccc(Cl)cc1 | > 100 µM (inactive) | > 100 µM (inactive) | > 100 µM (inactive) | > 100 µM (inactive) | > 100 µM (inactive) | > 100 µM (inactive) | > 100 µM (inactive) | > 100 µM (inactive) | > 100 µM (inactive) | > 100 µM (inactive) | > 100 µM (inactive) | > 100 µM (inactive) | > 100 µM (inactive) | > 100 µM (inactive) | – | > 100 | > 100 µM (inactive) | – | – | –
7 | O=C1c2ccccc2C(=O)c2nc(-c3ccccc3)c(-c3ccccc3)nc21 | > 100 µM (inactive) | > 67 µM (inactive) | 1.22 µM (inactive) | > 100 µM (inactive) | 24.9 µM (inactive) | – | > 100 µM (inactive) | > 74.1 µM (inactive) | 1.89 µM (inactive) | 2.7 µM (inactive) | 17.7 µM (inactive) | > 100 µM (inactive) | 8.04 µM (inactive) | 21.7 µM (inactive) | 7.08 µM (inactive) | > 88.1 | 28.2 µM (inactive) | – | – | –
8 | O=C(CC(=O)c1cccc2ccccc12)C(=O)NC1C2CC3CC(C2)CC1C3 (stereo not given) | > 100 µM (inactive) | > 100 µM (inactive) | > 100 µM (inactive) | > 100 µM (inactive) | > 100 µM (inactive) | 77.1 µM (inactive) | > 100 µM (inactive) | – | > 100 µM (inactive) | > 100 µM (inactive) | > 100 µM (inactive) | > 100 µM (inactive) | > 100 µM (inactive) | > 100 µM (inactive) | > 100 µM (inactive) | > 100 | > 100 µM (inactive) | – | – | –
9 | CN(C)C(=S)Nc1nnc(Nc2ccccc2)s1 | > 100 µM (inactive) | > 100 µM (inactive) | > 100 µM (inactive) | > 100 µM (inactive) | > 100 µM (inactive) | > 100 µM (inactive) | > 100 µM (inactive) | > 100 µM (inactive) | 59 µM (inactive) | > 100 µM (inactive) | > 100 µM (inactive) | – | > 100 µM (inactive) | > 100 µM (inactive) | > 100 µM (inactive) | > 100 | > 100 µM (inactive) | – | – | –
10 | COC(=O)/C=C/c1cc(OC)c(OC)c(OC)c1 | > 100 µM (inactive) | – | > 100 µM (inactive) | > 100 µM (inactive) | > 100 µM (inactive) | > 100 µM (inactive) | > 100 µM (inactive) | > 100 µM (inactive) | > 100 µM (inactive) | > 100 µM (inactive) | > 100 µM (inactive) | > 100 µM (inactive) | > 100 µM (inactive) | > 100 µM (inactive) | > 100 µM (inactive) | > 100 | – | – | – | –
11 | COc1ccc(/C(=N\NC(=N)N)C(c2ccc(OC)cc2)C2OC(=O)c3ccccc32)cc1 (stereo not given) | > 100 µM (inactive) | > 100 µM (inactive) | > 100 µM (inactive) | > 100 µM (inactive) | > 100 µM (inactive) | > 100 µM (inactive) | > 100 µM (inactive) | > 100 µM (inactive) | > 100 µM (inactive) | > 100 µM (inactive) | > 100 µM (inactive) | > 100 µM (inactive) | > 100 µM (inactive) | > 100 µM (inactive) | > 100 µM (inactive) | > 100 | – | – | – | –
12 | Clc1cccc(-c2nnc(-c3nn(-c4ccccc4)c4nc5ccccc5nc34)o2)c1 | > 100 µM (inactive) | > 100 µM (inactive) | > 100 µM (inactive) | > 100 µM (inactive) | > 100 µM (inactive) | > 100 µM (inactive) | > 100 µM (inactive) | > 100 µM (inactive) | > 100 µM (inactive) | > 100 µM (inactive) | > 100 µM (inactive) | > 100 µM (inactive) | > 100 µM (inactive) | > 100 µM (inactive) | > 100 µM (inactive) | > 100 | – | – | – | –
